Data as given in patent US7902181B2, “Compounds 010” (AstraZeneca AB, priority 2007, dated 2011).
Where a name gives a salt, the structure may show the parent alone. Each block holds one compound with its values, some of them ahead of it.

Target: Recombinant Human (rh) DPP1 (Homo sapiens, UniProt P53634)
Experiment: Fluorescence Assay for Recombinant Human (rh) DPP1
Assay type: biochemical
Settings: rhDPP1; substrate H-Gly-Arg-AMC; pH5.0; 30 min pre-incubation, 60 min reaction at 22° C.; highest concentration 10 μM; read-out: DPP1 activity, pIC50 (converted)
Procedure: Fluorescence Assay for Recombinant Human (rh) DPP1
The activity of DPP1 was determined by measuring the enzymatic release of aminomethyl coumarin (AMC) from the peptide substrate (H-Gly-Arg-AMC), which leads to an increase in fluorescence intensity at λex=350 nm and λem=450 nm. The assay was carried out in black 384 well plates in a final volume of 50 μl at 22° C. The assay conditions contained the following: 25 mM piperazine buffer pH5.0; 50 mM NaCl, 5 mM DTT; 0.01% (v/v) Triton X-100; 100 μM H-Gly-Arg-AMC and rhDPP1 ([…]). Potential inhibitors were made up in DMSO and then diluted in the assay to give a final concentration of 1% (v/v) DMSO. A 12-point half-log dilution of the inhibitors (highest concentration 10 μM) was tested and the pIC50 determined using a 4-parameter logistic equation in a non-linear curve fitting routine. A standard DPP1 inhibitor (vinyl sulfone, see below) was used as a positive control in the assay. Routinely, inhibitors were pre-incubated with rhDPP1 for 30 min prior to the addition of the peptide substrate to start the reaction for a further 60 min at 22° C. After that the plates were immediately read in a fluorescence plate reader using the above emission and excitation wavelengths [modified from Kam, C M, Gotz, M G, Koot, G, McGuire, M J, Thiele, D L, Hudig, D & Powers, J C (2004). Arch Biochem Biophys, 427, 123-134 & McGuire, M J, Lipsky, P E & Thiele, D L (1992). Arch Biochem Biophys, 295, 280-288].

Chain of Recombinant Human (rh) DPP1 (P53634 25-463): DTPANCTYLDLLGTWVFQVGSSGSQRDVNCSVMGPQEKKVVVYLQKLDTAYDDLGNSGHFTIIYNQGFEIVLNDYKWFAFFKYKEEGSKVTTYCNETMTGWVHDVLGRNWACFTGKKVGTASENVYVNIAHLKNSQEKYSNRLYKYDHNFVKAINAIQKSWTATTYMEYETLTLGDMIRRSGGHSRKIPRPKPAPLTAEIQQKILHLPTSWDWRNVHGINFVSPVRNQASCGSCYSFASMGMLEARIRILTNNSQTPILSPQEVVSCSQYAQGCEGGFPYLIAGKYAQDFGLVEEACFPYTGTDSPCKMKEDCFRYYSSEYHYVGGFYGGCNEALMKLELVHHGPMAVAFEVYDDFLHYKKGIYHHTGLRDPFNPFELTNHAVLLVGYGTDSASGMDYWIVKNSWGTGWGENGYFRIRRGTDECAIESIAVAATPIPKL

IC50: 794 nM
SMILES: CN(C)C(=O)c1cc(Cl)cc(-c2ccc(CC(C#N)NC(=O)[C@@H]3CCCCN3)cn2)c1 (mixture of isomers) [Example 81, (S)-N-((S)-2-(6-(3-Chloro-5-(dimethylcarbamoyl)phenyl)pyridin-3-yl)-1-cyanoethyl)piperidine-2-carboxamide Trifluoroacetate]

IC50: 15.8 nM
SMILES: N#CC(Cc1ccc(-c2ccc(S(=O)(=O)N3CCOCC3)cc2)cc1)NC(=O)[C@@H]1CCCCN1 (mixture of isomers) [Example 94, (S)-N-((S)-1-Cyano-2-(4′-(morpholinosulfonyl)biphenyl-4-yl)ethyl)piperidine-2-carboxamide Trifluoroacetate]

IC50: 100 nM
SMILES: COc1cccc(-c2ccc(C[C@@H](C#N)NC(=O)[C@@H]3CCCCN3)cc2)c1 [Example 15, (2S)-N-[(1S)-1-Cyano-2-(3′-methoxybiphenyl-4-yl)ethyl]piperidine-2-carboxamide Trifluoroacetate]

IC50: 126 nM
SMILES: N#C[C@H](Cc1ccc(-c2ccccc2)cc1)NC(=O)[C@@H]1CCCCN1 [Example 16, Piperidine-2-carboxylic acid (2-biphenyl-4-yl-1-cyano-ethyl)-amide]

IC50: 200 nM
SMILES: N#C[C@H](Cc1ccc(-c2ccccc2)cc1)NC(=O)[C@@H]1C[C@@H](O)CN1 [Example 17, (2S,4R)-N-((S)-2-(Biphenyl-4-yl)-1-cyanoethyl)-4-hydroxypyrrolidine-2-carboxamide]

IC50: 200 nM
SMILES: N#Cc1cccc(-c2ccc(C[C@@H](C#N)NC(=O)[C@@H]3CCN3)cc2)c1 [Example 19, (S)-N-((S)-1-Cyano-2-(3′-cyanobiphenyl-4-yl)ethyl)azetidine-2-carboxamide]

IC50: 25.1 nM
SMILES: CN(C)S(=O)(=O)c1ccc(-c2ccc(C[C@@H](C#N)NC(=O)[C@@H]3CCCCN3)cc2)cc1 [Example 20, (2S)-N-[(1S)-1-Cyano-2-[4-[4-(dimethylsulfamoyl)phenyl]phenyl]ethyl]piperidine-2-carboxamide trifluoroacetate]

IC50: 50.1 nM
SMILES: N#C[C@H](Cc1ccc(-c2cnoc2)cc1)NC(=O)[C@@H]1CCCCN1 [Example 21, (2S)-N-[(1S)-1-Cyano-2-(4-1,2-oxazol-4-ylphenyl)ethyl]piperidine-2-carboxamide trifluoroacetate]

IC50: 63.1 nM
SMILES: CSc1cccc(-c2ccc(C[C@@H](C#N)NC(=O)[C@@H]3CCCCN3)cc2)c1 [Example 22, (2S)-N-[(1S)-1-Cyano-2-[4-(3-methylsulfanylphenyl)phe-nyl]ethyl]piperidine-2-carboxamide trifluoroacetate]

IC50: 63.1 nM
SMILES: N#C[C@H](Cc1ccc(-c2ccc(O)cc2)cc1)NC(=O)[C@@H]1CCCCN1 [Example 23, (2S)-N-[(1S)-1-Cyano-2-[4-(4-hydroxyphenyl)phenyl]ethyl]piperidine-2-carboxamide trifluoroacetate]

IC50: 15.8 nM
SMILES: N#Cc1ccc(-c2ccc(C[C@@H](C#N)NC(=O)[C@@H]3CCCCN3)cc2)cc1 [Example 24, (2S)-N-[(1S)-1-Cyano-2-[4-(4-cyanophenyl)phenyl]ethyl]piperidine-2-carboxamide trifluoroacetate]

IC50: 63.1 nM
SMILES: COc1ccc(-c2ccc(C[C@@H](C#N)NC(=O)[C@@H]3CCCCN3)cc2)cc1 [Example 25, (2S)-N-[(1S)-1-Cyano-2-[4-(4-methoxyphenyl)phenyl]ethyl]piperidine-2-carboxamide trifluoroacetate]

IC50: 63.1 nM
SMILES: Cn1cc(-c2ccc(C[C@@H](C#N)NC(=O)[C@@H]3CCCCN3)cc2)cn1 [Example 26, (2S)-N-[(1S)-1-Cyano-2-[4-(1-methylpyrazol-4-yl)phenyl]ethyl]piperidine-2-carboxamide trifluoroacetate]

IC50: 63.1 nM
SMILES: N#C[C@H](Cc1ccc(-c2ccc(CCCO)cc2)cc1)NC(=O)[C@@H]1CCCCN1 [Example 27, (2S)-N-[(1S)-1-Cyano-2-[4-[4-(3-hydroxypropyl)phenyl]phenyl]ethyl]piperidine-2-carboxamide trifluoroacetate]

IC50: 100 nM
SMILES: N#C[C@H](Cc1ccc(-c2ccc3c(c2)OCO3)cc1)NC(=O)[C@@H]1CCCCN1 [Example 28, (2S)-N-[(1S)-2-(4-Benzo[1,3]dioxol-5-ylphenyl)-1-cyano-ethyl]piperidine-2-carboxamide trifluoroacetate]

IC50: 100 nM
SMILES: N#C[C@H](Cc1ccc(-c2ccc(F)c(F)c2)cc1)NC(=O)[C@@H]1CCCCN1 [Example 29, (2S)-N-[(1S)-1-Cyano-2-[4-(3,4-difluorophenyl)phenyl]ethyl]piperidine-2-carboxamide trifluoroacetate]

IC50: 100 nM
SMILES: N#C[C@H](Cc1ccc(-c2ccc(F)cc2OCc2ccccc2)cc1)NC(=O)[C@@H]1CCCCN1 [Example 30, (2S)-N-[(1S)-1-Cyano-2-[4-(4-fluoro-2-phenylmethoxy-phenyl)phenyl]ethyl]pipe-ridine-2-carboxamide trifluoroacetate]

IC50: 158 nM
SMILES: COc1ccc(-c2ccc(C[C@@H](C#N)NC(=O)[C@@H]3CCCCN3)cc2)cc1F [Example 31, (2S)-N-[(1S)-1-Cyano-2-[4-(3-fluoro-4-methoxy-phenyl)phenyl]ethyl]pipe-ridine-2-carboxamide trifluoroacetate]

More lines, now with the values behind:

SMILES: N#C[C@H](Cc1ccc(-c2cccc(Cl)c2)cc1)NC(=O)[C@@H]1CCCCN1 [Example 1, (S)-N-((S)-2-(3′-Chlorobiphenyl-4-yl)-1-cyanoethyl)piperidine-2-carboxamide Trifluoroacetate]
IC50: 63.1 nM

SMILES: N#C[C@H](Cc1ccc(-c2cccc(CN3CCCCC3)c2)cc1)NC(=O)[C@@H]1CCCCN1 [Example 2, (S)-N-((S)-1-Cyano-2-(3′-(piperidin-1-ylmethyl)biphenyl-4-yl)ethyl)piperidine-2-carboxamide di-trifluoroacetate]
IC50: 79.4 nM

SMILES: N#C[C@H](Cc1ccc(-c2ccccc2)cc1)NC(=O)[C@@H]1CCCN1 [Example 3, (S)-N-((S)-2-(Biphenyl-4-yl)-1-cyanoethyl)pyrrolidine-2-carboxamide]
IC50: 316 nM

SMILES: N#C[C@H](Cc1ccc(-c2cnn(Cc3ccccc3)c2)cc1)NC(=O)[C@@H]1CCCCN1 [Example 4, (S)-N-((S)-2-(4-(1-Benzyl-1H-pyrazol-4-yl)phenyl)-1-cyanoethyl)-piperidine-2-carboxamide Trifluoroacetate]
IC50: 31.6 nM

SMILES: N#C[C@H](Cc1ccc(-c2ccc(C(N)=O)cc2)cc1)NC(=O)[C@@H]1CCCCN1 [Example 5, (S)-N-((S)-2-(4′-Carbamoylbiphenyl-4-yl)-1-cyanoethyl)piperidine-2-carboxamide Trifluoroacetate]
IC50: 63.1 nM

SMILES: N#Cc1cccc(-c2ccc(C[C@@H](C#N)NC(=O)[C@@H]3CCCCN3)cc2)c1 [Example 6, (S)-N-((S)-1-Cyano-2-(3′-cyanobiphenyl-4-yl)ethyl)piperidine-2-carboxamide Trifluoroacetate]
IC50: 63.1 nM

SMILES: N#C[C@H](Cc1ccc(-c2cccc(CN)c2)cc1)NC(=O)[C@@H]1CCCCN1 [Example 7, (S)-N-((S)-2-(3′-(Aminomethyl)biphenyl-4-yl)-1-cyanoethyl)piperidine-2-carboxamide Ditrifluoroacetate]
IC50: 100 nM

SMILES: CC(=O)Nc1cccc(-c2ccc(C[C@@H](C#N)NC(=O)[C@@H]3CCCCN3)cc2)c1 [Example 8, (S)-N-((S)-2-(3′-Acetamidobiphenyl-4-yl)-1-cyanoethyl)piperidine-2-carboxamide Trifluoroacetate]
IC50: 126 nM

SMILES: N#C[C@H](Cc1ccc(-c2ccc(CN3CCOCC3)cc2)cc1)NC(=O)[C@@H]1CCCCN1 [Example 9, (S)-N-((S)-1-Cyano-2-(4′-(morpholinomethyl)biphenyl-4-yl)ethyl)piperidine-2-carboxamide Trifluoroacetate]
IC50: 158 nM

SMILES: N#C[C@H](Cc1ccc(-c2cccnc2)cc1)NC(=O)[C@@H]1CCCCN1 [Example 10, (S)-N-((S)-1-Cyano-2-(4-(pyridin-3-yl)phenyl)ethyl)piperidine-2-carboxamide Trifluoroacetate]
IC50: 251 nM

SMILES: Cc1cc(O)ccc1-c1ccc(C[C@@H](C#N)NC(=O)[C@@H]2CCCCN2)cc1 [Example 11, (S)-N-((S)-1-Cyano-2-(4′-hydroxy-2′-methylbiphenyl-4-yl)ethyl)piperidine-2-carboxamide Trifluoroacetate]
IC50: 316 nM

SMILES: N#C[C@H](Cc1ccc(-c2cccc(C(=O)O)c2)cc1)NC(=O)[C@@H]1CCCCN1 [Example 12, 4′-((S)-2-Cyano-2-((S)-piperidine-2-carboxamido)ethyl)biphenyl-3-carboxylic Acid Trifluoroacetate]
IC50: 398 nM

SMILES: N#C[C@H](Cc1ccc(-c2ccccc2O[C@@H]2CCNC2)cc1)NC(=O)[C@@H]1CCCCN1 [Example 13, (S)-N-((S)-1-Cyano-2-(2′-((R)-pyrrolidin-3-yloxy)biphenyl-4-yl)ethyl)piperidine-2-carboxamide Ditrifluoroacetate]
IC50: 794 nM

SMILES: N#C[C@H](Cc1ccc(-c2cc3ccccc3[nH]2)cc1)NC(=O)[C@@H]1CCCCN1 [Example 14, (S)-N-((S)-2-(4-(1H-Indol-2-yl)phenyl)-1-cyanoethyl)piperidine-2-carboxamide Trifluoroacetate]
IC50: 7.94 nM
